The text below walks through data of publication PMC4728128, “Two-subunit DNA escort mechanism and inactive subunit bypass in an ultra-fast ring ATPase” (eLife, 2015).

As a reminder, the Km is the concentration of substrate that gives half-maximal velocity.

Experiment [1] has as its target T1, SpoIIIE (Bacillus subtilis, UniProt P21458).
T1 construct: N-terminal biotin tag (PinPoint Xa-1) fused to SpoIIIE from plasmid pJB103 (Bath et al. 2000); recombinant, purified; homo-hexamer
Description: optical tweezers rupture force of SpoIIIE-DNA tether (indirect sign of nucleotide binding). The following applies: 1 mM ADP, no ATP; dsDNA.

Experiment [2] concerns the target T1, SpoIIIE. In words: single-molecule optical tweezers DNA translocation. In kind it is biochemical. The following applies: dsDNA, 50 mM Tris-HCl pH 7.5, 10 mM MgCl2.

T1 sequence (P21458 175-787): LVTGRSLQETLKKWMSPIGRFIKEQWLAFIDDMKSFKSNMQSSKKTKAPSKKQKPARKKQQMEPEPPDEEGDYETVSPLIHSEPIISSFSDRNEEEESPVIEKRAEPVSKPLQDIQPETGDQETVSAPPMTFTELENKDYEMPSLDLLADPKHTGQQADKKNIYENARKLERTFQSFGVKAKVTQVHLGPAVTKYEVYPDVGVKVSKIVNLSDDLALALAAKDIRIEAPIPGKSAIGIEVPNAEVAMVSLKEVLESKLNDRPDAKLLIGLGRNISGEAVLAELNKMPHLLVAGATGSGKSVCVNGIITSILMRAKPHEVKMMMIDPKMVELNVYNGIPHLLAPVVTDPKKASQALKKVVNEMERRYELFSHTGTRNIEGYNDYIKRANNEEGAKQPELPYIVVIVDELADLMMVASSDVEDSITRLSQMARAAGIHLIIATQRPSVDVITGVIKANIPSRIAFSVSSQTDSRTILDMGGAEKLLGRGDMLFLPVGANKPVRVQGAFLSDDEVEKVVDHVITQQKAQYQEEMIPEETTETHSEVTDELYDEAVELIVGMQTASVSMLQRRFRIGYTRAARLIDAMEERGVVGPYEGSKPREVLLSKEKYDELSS

Consider `Nc1ncnc2c1ncn2[C@@H]1O[C@H](COP(=O)(O)OP(=O)(O)O)[C@@H](O)[C@H]1O` [ADP], for which the “optical tweezers rupture force of SpoIIIE-DNA tether (indirect sign of nucleotid)” value at SpoIIIE [1] is on record as “In buffers containing only ADP or ATPγS, SpoIIIE could bind to DNA”.

As for `Nc1ncnc2c1ncn2[C@@H]1O[C@H](COP(=O)(O)OP(=O)(O)OP(=O)(O)O)[C@@H](O)[C@H]1O` [ATP], the Km on SpoIIIE [2] was 505 ± 50 µM.
